# Source: US4168206A, “Impregnated disk method for testing antifungal susceptibility” (Philadelphia College of Osteopathic Medicine, priority 1977, dated 1979)
# Read-outs that look alike come from different tables or passages of the source.
# Tests used:
# Saccharomyces cerevisiae = assay: MIC by broth dilution method, Saccharomyces cerevisiae; format: cell-based; conditions: Saccharomyces cerevisiae
# Text: (§1) The preparation of the nutrient media, the antifungal agents and the fungi to be tested in the present invention are similar to those reported in S. Shadomy and A. Espinel-Ingroff, "Susceptibility Testing Of Antifungal Agents", Ch. 63, pp. 569-574 in E. H. Lennett, E. H. Spaulding, and J. P. Truant, Eds., Manual Of Clinical Microbiology, 2nd Ed., American Society for Microbiology, Washington, D.C. (1974). This publication describes the susceptibility testing of antifungal agents, namely, amphotericin B, nystatin and 5-fluoro-cytosine (5-FC), by the "broth dilution method" and the "semisolid agar dilution method". At pages 570-571, it is stated:
# (§2) In 10 duplicate runs with each strain tested, the variation in minimum inhibitory concentration averaged ±0.05 μg/ml.
# (§3) *Broth dilution method conducted in accordance with S. Shadomy and E.
# (§4) Espinel-Ingroff, "Susceptibility Testing of Antifungal Agents", Ch. 63,
# (§5) pp. 569-574 in E. H. Spaulding and J. P. Truant, Eds., Manual Of Clinical
# (§6) Microbiology, 2nd Ed., American Society for Microbiology, Washington, […]
# Cryptococcus neoformans = assay: MIC by broth dilution method, Cryptococcus neoformans; format: cell-based; conditions: Cryptococcus neoformans
# Text: as §1, §2, §3, §4, §5, §6
structure (smiles),measurement,setting,value
"C[C@@H]1[C@H](O)[C@@H](C)/C=C/C=C/C=C/C=C/C=C/C=C/C=C/[C@H](O[C@@H]2O[C@H](C)[C@@H](O)[C@H](N)[C@@H]2O)C[C@@H]2O[C@](O)(C[C@@H](O)C[C@@H](O)[C@H](O)CC[C@@H](O)C[C@@H](O)CC(=O)O[C@H]1C)C[C@H](O)[C@H]2C(=O)O [Amphotericin B, amphotericin B]",MIC,"Saccharomyces cerevisiae; read-out: Minimum Inhibitory Concentration, Broth, S. cerevisiae isolate 2",0.8 mg/L
same,MIC,"Saccharomyces cerevisiae; read-out: Minimum Inhibitory Concentration, Broth, Saccharomyces cerevisiae isolate 1",0.4 mg/L
same,MIC,"Cryptococcus neoformans; read-out: Minimum Inhibitory Concentration, Broth, C. neoformans isolate 2",0.4 mg/L
same,MIC,"Cryptococcus neoformans; read-out: Minimum Inhibitory Concentration, Broth, C. neoformans isolate 3",0.5 mg/L
same,MIC,"Cryptococcus neoformans; read-out: Minimum Inhibitory Concentration, Broth, Cryptococcus neoformans isolate 1",0.5 mg/L
